Experimental data reported in paper PMC4179164, “Ophiobolin A from Bipolaris oryzae Perturbs Motility and Membrane Integrities of Porcine Sperm and Induces Cell Death on Mammalian Somatic Cell Lines” (Toxins, 2014).
In brackets after ≈: the same amount, converted by molar mass.

Key:
boar spermatozoa [1] = test: Dissipation of mitochondrial membrane potential (ΔΨm), JC-1 staining; type: cell-based
Protocol: The membrane-permeable 5,5',6,6'-tetrachloro-1,1',3,3'-tetraethylbenzimidazolylcarbocyanine iodide (JC-1) dye is widely used in apoptosis studies to monitor mitochondrial health. […] Therefore, the loss of ΔΨm was seen as decrease in orange fluorescence. In our cases, the staining for […] with JC-1 at 37 °C was enough to get the energized mitochondria stained orange and the plasma membrane green. This short staining was empirically optimized for getting the most reproducible differences between vehicle and toxin exposed sperm cells in Hoornstra et al.. After 2 min incubation, OPA completely depolarized the mitochondrial membrane of the sperm cells at the concentration of 1.25 μg mL^−1 and the exposed cells have already lost approximately 50% of their bright fluorescing mitochondria at the concentration of 500 ng mL^−1 (Figure 3, Table 1).
The dissipation of the ΔΨm on static cells at room temperature was visualized by 5,5',6,6'-tetrachloro-1,1',3,3'-tetraethylbenzimidazolylcarbocyanine iodide (JC-1) (Molecular Probes, Eugene, OR, USA) staining according to Hoornstra et al. with minor modifications as follows: 200 μL of the boar semen exposed with the final OPA concentration of 2.5 μg mL^−1, 1.25 μg mL^−1, 0.5 μg mL^−1 and 0.125 μg mL^−1 was incubated at 37 °C for 2 min, stained with 0.3 μL of JC-1 (1 mg mL^−1 in DMSO) followed by another 2 min at 37 °C and viewed using an epifluorescence microscope (Eclipse E600, Nikon, Tokyo, Japan). All assays (PI + CAM and JC-1 staining) were performed in triplicate and for each sample five microscopic fields containing ca. 20 cells were inspected.

[2] = Cell membrane permeability assay on motile sperm cells (PI staining); type: cell-based, boar; details: boar (pig), motile boar spermatozoa (commercial extended boar semen); at 800 ng mL^−1 to 1600 ng mL^−1, 37 °C, 2 h
Protocol: (§1) To test the effect of OPA exposure on sperm cells in physiological conditions (swimming at 37 °C) the plasma membrane disruption on motile sperm cells was measured with the viability PI stain, where the loss of plasma membrane integrity was detected as appearance of red color stained nuclei in the damaged cells. In this assay, sperm cells were exposed to OPA at 37 °C and motility of the exposed sperm cells was induced and maintained for 2 h.
(§2) Cell membrane permeability assay on motile sperm cells was inspected by staining with PI (Molecular Probes, Eugene, OR, USA) in sperm cells induced to swim by shaking at 37 °C. One hundred and fifty μL aliquots of commercial extended boar semen with a density of 27 × 10^6 sperms mL^−1 were pipetted into microtiter plate wells and serially diluted methanolic solution of OPA were added in the concentration range of 200 ng mL^−1 to 4 μg mL^−1 including 6 levels and an additional methanol blank, and pre-incubated for 2 h on orbital shaker (Innova 5000 new Brunswick Scientific, Enfield, CT, USA) (160 rpm) at 37 °C. Four parallel measurements were done for each dilution. One ml PI solution (1 mg mL^−1 in Dulbeco’s phosphate buffered saline) was mixed with 3 mL of […] Dulbeco’s phosphate buffered saline. One hundred and fifty μL of this stain mixture was added to 150 μL of exposed boar semen. This suspension was incubated for 15 min at 37 °C in dark and measured using a microplate reader (Fluoroskan Ascent, Thermo Scientific, Vantaa, Finland) at excitation and emission wavelengths of 544 nm and 600 nm, respectively. For observing plasma membrane damage by PI staining frozen-thawed semen was used as a positive control (for mortality of 100%) representing the maximal fluorescence emitted by the cells permeable to PI and Dulbeco’s phosphate buffered saline was applied as background control (blank). Loss of viability in the sample was calculated as described in Alm et al.. The frozen sample represented 100% loss of viability. The assay was calibrated with triclosan (Sigma Chemical Co., St. Louis, MO, USA), in 5 parallel tests, the EC50 was 2 μg mL^−1 (SD ± 0.6). Cell membrane permeability assay on static sperm cells at room temperature was carried out by viability staining with PI and calcein-AM (Molecular Probes, Eugene, OR, USA) according to Hoornstra et al. in same concentration range and levels described above.

boar spermatozoa [3] = test: as above; type: cell-based; details: for EC50: Spermatozoa
Protocol: as §1, §2

Question: What does the source list for `CC(C)=C[C@H]1C[C@H](C)[C@]2(CC[C@]3(C)C[C@H]4[C@H](C(=O)C[C@@]4(C)O)/C(C=O)=C\C[C@H]32)O1` [OPA, ophiobolin A]?
Answer: Effect on JC-1 mitochondrial fluorescence (boar spermatozoa [1]; 125 ng mL^−1 OPA, JC-1 staining): minimal difference compared to the untreated control; Loss of bright fluorescing mitochondria (boar spermatozoa [1]; 500 ng mL^−1 OPA, JC-1 staining): approximately 50%; Concentration completely depolarizing the mitochondrial membrane of the sperm cells (boar spermatozoa [1]; JC-1 staining, 2 min incubation at 37 °C): 1.25 µg/mL; EC50 (boar spermatozoa [1]; Spermatozoa, read-out: Toxic endpoint EC50, Dissipation of ΔΨm): 0.5 µg/mL (≈ 1.25 µM); viability at 2 h [2]: 38 to 73%; EC50 (boar spermatozoa [3]; 2 h, read-out: Toxic endpoint EC50, Permeability to PI on motile cells): 1.6 µg/mL (≈ 3.99 µM); EC50 (boar spermatozoa [3]; 37 °C, motility maintained for 2 h, read-out: EC50, loss of plasma membrane integrity (PI) on motile sperm cells): 0.8 to 1.6 µg/mL (≈ 2 to 3.99 µM); Concentration lethal to the sperm cells (disrupting the plasma membrane) (boar spermatozoa [3]; motile at 37 °C, after 2 h): below 2000 ng/mL; Concentration inducing lethal damage (loss of plasma membrane integrity) (boar spermatozoa [3]; swimming at 37 °C, short period): < 1 µg/mL
